Source: ChEMBL document CHEMBL5465560, “Selectivity Literature for EUbOPEN Chemogenomic Library” (2024)
pIC50: −log10 of the molar value.

Key:
[1] = target: Ephrin type-A receptor 4 (Homo sapiens, UniProt P54764); assay: Selectivity interaction (KinomeScan (DiscoverX)) EUB0000229b EPHA4; conditions: at 10 µM
[2] = target: Phosphatidylinositol 4-phosphate 5-kinase type-1 alpha (Homo sapiens) (UniProt Q99755); assay: Selectivity interaction (KinomeScan (DiscoverX)) EUB0000045b PIP5K1A
[3] = target: Mitogen-activated protein kinase 1 (Homo sapiens, UniProt P28482)
[4] = target: T1, Dual specificity mitogen-activated protein kinase kinase 5 (Homo sapiens) (UniProt Q13163); assay: Selectivity interaction (ProQinase) EUB0000171b MAP2K5
T1 sequence (whole entry): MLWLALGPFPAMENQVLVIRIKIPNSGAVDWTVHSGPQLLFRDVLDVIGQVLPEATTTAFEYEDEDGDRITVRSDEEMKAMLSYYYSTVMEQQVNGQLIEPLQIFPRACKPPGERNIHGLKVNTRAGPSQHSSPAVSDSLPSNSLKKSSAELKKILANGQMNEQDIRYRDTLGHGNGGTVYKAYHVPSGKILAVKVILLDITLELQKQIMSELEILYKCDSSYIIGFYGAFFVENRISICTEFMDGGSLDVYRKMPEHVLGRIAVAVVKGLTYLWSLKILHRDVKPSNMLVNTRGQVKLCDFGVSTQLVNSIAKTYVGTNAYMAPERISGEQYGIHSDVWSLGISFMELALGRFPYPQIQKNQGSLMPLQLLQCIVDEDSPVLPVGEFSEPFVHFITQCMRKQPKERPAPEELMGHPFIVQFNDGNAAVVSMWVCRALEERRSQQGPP

[5] = target: Mitogen-activated protein kinase kinase kinase kinase 5 (Homo sapiens) (UniProt Q9Y4K4); assay: Selectivity interaction (ActivX KiNativ screen (ex vivo kinase selectivity in human PBMCs)) EUB0001619a MAP4K5; type: cell-based; conditions: PBMC, at 1 µM
[6] = target: T2, Histone-lysine N-methyltransferase EHMT2 (Homo sapiens) (UniProt Q96KQ7); assay: Selectivity interaction (Methyltransferase screen (Scintillation proximity assays)) EUB0000255b EHMT2
T2 sequence (whole entry): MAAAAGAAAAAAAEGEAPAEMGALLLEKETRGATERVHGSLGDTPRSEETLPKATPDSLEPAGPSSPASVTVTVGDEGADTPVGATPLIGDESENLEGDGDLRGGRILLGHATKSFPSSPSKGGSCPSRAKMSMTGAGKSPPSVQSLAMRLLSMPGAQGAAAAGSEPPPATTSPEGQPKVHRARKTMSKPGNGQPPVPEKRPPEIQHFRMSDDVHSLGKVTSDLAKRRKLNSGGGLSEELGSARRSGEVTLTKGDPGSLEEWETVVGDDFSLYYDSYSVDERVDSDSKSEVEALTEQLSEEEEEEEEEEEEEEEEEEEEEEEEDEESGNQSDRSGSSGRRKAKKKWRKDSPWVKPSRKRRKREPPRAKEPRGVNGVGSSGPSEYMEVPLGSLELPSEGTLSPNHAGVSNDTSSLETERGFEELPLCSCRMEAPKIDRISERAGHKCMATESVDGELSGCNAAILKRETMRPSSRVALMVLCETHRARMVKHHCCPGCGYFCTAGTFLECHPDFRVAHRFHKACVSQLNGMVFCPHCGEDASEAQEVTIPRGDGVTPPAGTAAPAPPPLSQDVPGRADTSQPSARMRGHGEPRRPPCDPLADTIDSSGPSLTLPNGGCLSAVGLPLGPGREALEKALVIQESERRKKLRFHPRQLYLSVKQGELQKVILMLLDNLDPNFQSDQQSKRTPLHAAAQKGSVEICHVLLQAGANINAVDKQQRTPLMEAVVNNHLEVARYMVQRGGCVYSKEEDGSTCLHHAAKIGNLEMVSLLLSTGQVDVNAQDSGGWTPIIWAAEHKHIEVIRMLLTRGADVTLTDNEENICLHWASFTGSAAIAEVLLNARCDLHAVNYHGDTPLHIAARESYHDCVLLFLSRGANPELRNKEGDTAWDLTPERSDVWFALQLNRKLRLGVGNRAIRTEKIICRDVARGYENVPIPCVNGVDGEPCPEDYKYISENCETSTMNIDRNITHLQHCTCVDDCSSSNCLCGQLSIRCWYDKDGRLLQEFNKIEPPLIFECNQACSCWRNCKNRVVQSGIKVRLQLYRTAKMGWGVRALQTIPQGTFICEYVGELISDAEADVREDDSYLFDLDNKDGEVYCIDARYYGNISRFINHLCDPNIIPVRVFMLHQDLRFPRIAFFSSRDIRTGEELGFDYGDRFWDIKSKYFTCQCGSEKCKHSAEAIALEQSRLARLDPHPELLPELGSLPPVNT

[7] = target: Mitogen-activated protein kinase kinase kinase kinase 1 (Homo sapiens) (UniProt Q92918); assay: Selectivity interaction (ActivX KiNativ screen (kinase selectivity in THP-1 cell lysates)) EUB0000639a MAP4K1; type: subcellular; conditions: lysate, at 0.04 µM
[8] = target: T3, Mitogen-activated protein kinase 15 (Homo sapiens) (UniProt Q8TD08); assay: Selectivity interaction (Ambit KINOMEscan and KiNATiv profiling in Jurkat cells) EUB0000090b MAPK15; type: cell-based; conditions: at 1 µM
T3 sequence (whole entry): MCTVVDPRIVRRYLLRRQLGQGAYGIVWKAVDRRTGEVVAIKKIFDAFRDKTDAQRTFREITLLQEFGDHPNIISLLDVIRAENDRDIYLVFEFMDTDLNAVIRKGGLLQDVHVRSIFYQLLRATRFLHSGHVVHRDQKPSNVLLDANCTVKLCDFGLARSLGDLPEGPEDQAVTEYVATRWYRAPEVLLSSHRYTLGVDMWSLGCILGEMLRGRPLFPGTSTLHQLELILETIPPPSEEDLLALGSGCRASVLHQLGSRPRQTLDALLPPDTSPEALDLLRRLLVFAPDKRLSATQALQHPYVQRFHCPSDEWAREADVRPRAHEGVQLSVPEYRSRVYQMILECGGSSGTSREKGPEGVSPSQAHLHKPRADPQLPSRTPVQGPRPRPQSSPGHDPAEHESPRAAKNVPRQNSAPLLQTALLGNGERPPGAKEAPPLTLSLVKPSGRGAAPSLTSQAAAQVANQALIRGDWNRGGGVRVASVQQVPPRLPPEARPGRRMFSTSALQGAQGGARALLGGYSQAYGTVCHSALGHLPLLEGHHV

Chain of Phosphatidylinositol 4-phosphate 5-kinase type-1 alpha (Homo sapiens) (Q99755 whole entry): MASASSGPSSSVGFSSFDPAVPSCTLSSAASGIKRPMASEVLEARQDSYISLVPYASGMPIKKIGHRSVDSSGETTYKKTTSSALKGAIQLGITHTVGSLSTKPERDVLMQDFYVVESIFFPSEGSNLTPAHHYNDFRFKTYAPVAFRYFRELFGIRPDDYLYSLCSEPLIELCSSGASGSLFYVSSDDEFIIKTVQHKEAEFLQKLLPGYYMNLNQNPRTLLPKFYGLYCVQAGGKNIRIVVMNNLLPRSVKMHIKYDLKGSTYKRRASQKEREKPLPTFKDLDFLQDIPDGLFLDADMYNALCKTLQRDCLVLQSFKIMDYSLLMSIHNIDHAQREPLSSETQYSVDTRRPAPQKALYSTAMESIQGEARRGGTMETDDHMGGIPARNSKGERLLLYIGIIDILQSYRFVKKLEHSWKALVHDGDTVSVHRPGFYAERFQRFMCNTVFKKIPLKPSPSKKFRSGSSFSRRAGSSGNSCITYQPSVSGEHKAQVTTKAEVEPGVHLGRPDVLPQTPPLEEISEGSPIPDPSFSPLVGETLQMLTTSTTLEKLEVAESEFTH
Chain of Mitogen-activated protein kinase kinase kinase kinase 5 (Homo sapiens) (Q9Y4K4 whole entry, looked up): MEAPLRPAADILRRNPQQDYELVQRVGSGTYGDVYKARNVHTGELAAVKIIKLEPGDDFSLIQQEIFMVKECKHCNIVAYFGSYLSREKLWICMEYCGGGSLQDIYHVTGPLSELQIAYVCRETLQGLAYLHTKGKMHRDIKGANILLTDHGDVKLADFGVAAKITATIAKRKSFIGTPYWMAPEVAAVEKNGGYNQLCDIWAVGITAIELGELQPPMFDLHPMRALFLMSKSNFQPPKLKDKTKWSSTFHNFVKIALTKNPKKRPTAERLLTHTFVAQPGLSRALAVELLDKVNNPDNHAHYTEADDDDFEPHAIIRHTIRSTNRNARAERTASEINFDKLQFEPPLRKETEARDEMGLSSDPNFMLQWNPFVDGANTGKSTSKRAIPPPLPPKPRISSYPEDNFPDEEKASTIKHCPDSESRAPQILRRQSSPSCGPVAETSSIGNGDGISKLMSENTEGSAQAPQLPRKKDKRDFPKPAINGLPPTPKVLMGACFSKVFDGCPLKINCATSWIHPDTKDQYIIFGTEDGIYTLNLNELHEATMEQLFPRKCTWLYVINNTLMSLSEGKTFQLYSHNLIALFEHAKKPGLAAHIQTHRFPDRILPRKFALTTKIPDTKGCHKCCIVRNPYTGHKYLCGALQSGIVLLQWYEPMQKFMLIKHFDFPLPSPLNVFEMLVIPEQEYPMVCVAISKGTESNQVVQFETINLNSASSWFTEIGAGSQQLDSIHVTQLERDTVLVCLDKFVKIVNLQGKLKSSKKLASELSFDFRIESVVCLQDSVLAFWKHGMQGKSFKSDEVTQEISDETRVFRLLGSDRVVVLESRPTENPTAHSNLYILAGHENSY
Chain of Mitogen-activated protein kinase 1 (P28482 whole entry): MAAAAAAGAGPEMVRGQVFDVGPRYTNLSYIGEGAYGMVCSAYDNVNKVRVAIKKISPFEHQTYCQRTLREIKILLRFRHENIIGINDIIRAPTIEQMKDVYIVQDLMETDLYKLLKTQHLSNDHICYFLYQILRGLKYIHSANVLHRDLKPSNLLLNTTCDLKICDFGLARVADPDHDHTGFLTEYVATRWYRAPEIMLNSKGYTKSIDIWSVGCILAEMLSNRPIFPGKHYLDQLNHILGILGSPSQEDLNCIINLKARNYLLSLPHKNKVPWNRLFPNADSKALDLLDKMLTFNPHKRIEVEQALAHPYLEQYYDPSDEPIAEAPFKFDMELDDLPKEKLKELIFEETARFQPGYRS
Chain of Mitogen-activated protein kinase kinase kinase kinase 1 (Homo sapiens) (Q92918 whole entry, looked up): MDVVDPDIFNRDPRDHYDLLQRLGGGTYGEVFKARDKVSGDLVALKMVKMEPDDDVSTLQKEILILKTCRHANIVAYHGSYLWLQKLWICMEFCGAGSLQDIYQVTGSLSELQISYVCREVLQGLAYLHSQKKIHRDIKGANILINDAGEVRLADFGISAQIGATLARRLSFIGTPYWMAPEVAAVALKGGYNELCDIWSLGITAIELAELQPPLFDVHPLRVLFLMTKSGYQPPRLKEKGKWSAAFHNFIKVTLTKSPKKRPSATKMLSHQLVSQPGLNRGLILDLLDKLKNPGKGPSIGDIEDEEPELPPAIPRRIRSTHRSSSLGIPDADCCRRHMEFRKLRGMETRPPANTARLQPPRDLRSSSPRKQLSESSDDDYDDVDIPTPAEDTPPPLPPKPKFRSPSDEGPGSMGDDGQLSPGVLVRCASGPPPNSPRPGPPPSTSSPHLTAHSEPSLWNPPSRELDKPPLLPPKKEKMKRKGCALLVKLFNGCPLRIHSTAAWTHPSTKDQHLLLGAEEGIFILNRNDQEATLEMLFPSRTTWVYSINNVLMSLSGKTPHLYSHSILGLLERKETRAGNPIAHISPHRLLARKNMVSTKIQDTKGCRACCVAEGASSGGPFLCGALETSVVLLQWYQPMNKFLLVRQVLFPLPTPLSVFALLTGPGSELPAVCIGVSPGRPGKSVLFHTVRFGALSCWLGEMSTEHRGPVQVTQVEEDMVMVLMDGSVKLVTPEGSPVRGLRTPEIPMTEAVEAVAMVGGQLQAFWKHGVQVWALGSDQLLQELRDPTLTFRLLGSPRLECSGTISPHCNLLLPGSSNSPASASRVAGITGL
Chain of Ephrin type-A receptor 4 (P54764 whole entry): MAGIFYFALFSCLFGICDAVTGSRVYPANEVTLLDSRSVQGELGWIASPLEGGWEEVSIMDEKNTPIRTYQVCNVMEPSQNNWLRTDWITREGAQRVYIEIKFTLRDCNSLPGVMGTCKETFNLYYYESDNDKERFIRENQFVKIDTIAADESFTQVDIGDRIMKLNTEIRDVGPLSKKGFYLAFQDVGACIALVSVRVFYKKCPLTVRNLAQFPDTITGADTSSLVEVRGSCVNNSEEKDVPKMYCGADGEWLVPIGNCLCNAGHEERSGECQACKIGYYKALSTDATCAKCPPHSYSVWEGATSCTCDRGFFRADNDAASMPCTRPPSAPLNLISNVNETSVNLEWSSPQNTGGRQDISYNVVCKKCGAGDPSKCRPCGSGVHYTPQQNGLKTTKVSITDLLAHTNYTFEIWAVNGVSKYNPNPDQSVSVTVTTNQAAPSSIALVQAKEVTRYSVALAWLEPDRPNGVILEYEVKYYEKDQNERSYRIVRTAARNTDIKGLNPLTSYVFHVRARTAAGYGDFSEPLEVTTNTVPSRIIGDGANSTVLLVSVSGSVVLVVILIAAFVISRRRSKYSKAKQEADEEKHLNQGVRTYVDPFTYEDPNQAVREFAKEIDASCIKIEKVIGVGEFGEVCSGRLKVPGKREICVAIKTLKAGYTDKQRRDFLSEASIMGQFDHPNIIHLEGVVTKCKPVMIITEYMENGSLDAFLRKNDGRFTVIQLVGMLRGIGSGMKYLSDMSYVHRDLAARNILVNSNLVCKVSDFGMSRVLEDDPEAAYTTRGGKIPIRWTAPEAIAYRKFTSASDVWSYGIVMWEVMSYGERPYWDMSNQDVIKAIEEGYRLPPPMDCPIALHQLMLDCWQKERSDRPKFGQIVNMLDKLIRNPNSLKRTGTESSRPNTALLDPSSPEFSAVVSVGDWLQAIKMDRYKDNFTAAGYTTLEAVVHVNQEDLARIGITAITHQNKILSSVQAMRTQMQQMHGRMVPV

With COc1cc(N(C)c2ccnc3ccc(C(F)(F)F)cc23)cc(OC)c1OC the % binding [1] was 100%.

Molecule C=CC(=O)Nc1cc(-n2c(=O)ccc3cnc4ccc(-c5ccc(NS(C)(=O)=O)cc5)cc4c32)ccc1C has a % of control ([2]; at 1 µM) of 100% and a % of control ([2]; at 10 µM) of 54%.

In the case of CCc1cccc(CC)c1NC(=O)c1nn(C)c2c1CCc1cnc(Nc3ccc(C(=O)NC4CCN(C)CC4)cc3OC(F)(F)F)nc1-2, the pIC50 [3] was < 5.00.

With C=CC(=O)Nc1cccc(C(=O)Nc2ccc(Nc3cc(-c4[nH]c(SC)nc4C)ccn3)cc2)c1 the % of control ([4]; at 1 µM) was 87% and the % of control ([4]; at 5 µM) was 60%.

Molecule N#Cc1cccc(-c2c[nH]c3ncnc(N4CCOCC4)c23)c1 has a % of inhibition [5] of 16%.

In the case of COCCN1CCC(c2cc(CN(C)C(=O)c3cccc(Oc4ccccc4)c3)ccn2)CC1, the % activity ([6]; at 1 µM) was > 95% and the % activity ([6]; at 10 µM) was > 90%.

CC[C@@H]1[C@H](F)C(=O)N[C@@H]1COc1nccc2cc(C(N)=O)c(OC)cc12 [ZIMLOVISERTIB] showed a % of inhibition [7] of -4.8%.

CN(C)C/C=C/C(=O)Nc1ccc(C(=O)N2CCCC(Nc3ncc(Cl)c(-c4c[nH]c5ccccc45)n3)C2)cc1 (stereo unspecified) showed a % of control [8] of 14%.
